One may read the logP as a log measure of how a compound divides between an organic and an aqueous phase. Read a low logP as a more hydrophilic compound. As usually defined, the logD is the decadic logarithm of the distribution of all forms, ionised or not, between an organic phase and buffer at a given pH. Higher therefore signals a more lipophilic compound.

Experiment in one series: not given
Details: not given
In turn, `Clc1ccc2cc(Cl)c(Cl)cc2c1` gave a log partition coefficient (logP) of 5.12.

In turn, `Clc1c(Cl)c(Cl)c2c(Cl)c(Cl)c(Cl)c(Cl)c2c1Cl` showed a lipophilicity (logP) of 6.42.

Regarding `Clc1cc2c(Cl)ccc(Cl)c2cc1Cl`, the logP was 5.81.

`Clc1ccc2ccccc2c1Cl` yielded a logP of 4.42.

The compound `Clc1cc2c(Cl)cccc2c(Cl)c1Cl` had a log partition coefficient (logP) of 5.77.

Experiment in a further series: not given
Details: not given
The source holds these as a separate data set.
On to `O=c1oc2cc(O)ccc2c2oc3cc(O)ccc3c12`, for which the lipophilicity (logP) is 2.69.

The compound `Oc1ccc2c(c1)OC[C@H]1c3cc4c(cc3O[C@@H]21)OCO4` showed a lipophilicity (logP) of 2.61.

The compound `COc1ccc2c(c1)OCc1c-2oc2cc3c(cc12)C=CC(C)(C)O3` registered a logP of 3.18.

Take `CC1(C)C=Cc2cc3c(cc2O1)OC1c2ccc(O)cc2OCC31O` (stereo not given): the logP stood at 2.62.

Turning to `COc1ccc([C@@H]2COc3cc(O)ccc3C2)c(OC)c1`, the logP worked out at 3.21.

Experiment in another series: not given
Details: not given
This is another data set of the same source.
The compound `COC(=O)CCC12C=CC(C)(OO1)c1ccccc12` (stereo not given) had a lipophilicity (logP) of 2.13.

Turning to `COC(=O)CCC1=CC2(CCC(=O)OC)OOC1(C)c1ccccc12` (stereo not given), the logP is 2.06.

In the case of `CC12C=CC(CCS(N)(=O)=O)(OO1)c1ccccc12` (stereo not given), the log partition coefficient (logP) turned out to be 1.66.

Consider `COC(=O)CCC12C=CC(CCC(=O)OC)(OO1)c1ccccc12`, for which the lipophilicity (logP) was found to be 2.08.

In the case of `CC12C=CC(CCC(=O)O)(OO1)c1ccccc12` (stereo not given), the logP is 1.19.

Experiment in another series: not given
Details: not given
This is another data set of the same source.
In turn, `CNC(=O)Oc1ccc(C)c(C)c1` yielded a lipophilicity (logP) of 2.25.

Compound `CNC(=O)Oc1cc(C)cc(C)c1` came in with a logP of 2.38.

On to `Cc1ccccc1C(=O)Nc1cccc(OC(C)C)c1`, for which the logP worked out at 3.5.

Compound `N#Cc1c(Cl)c(Cl)c(Cl)c(C#N)c1Cl` showed a logP of 3.8.

The compound `CNC(=O)Oc1ccccc1OC(C)C` had a log partition coefficient (logP) of 1.99.

A short description of a further series: method code SF-AS, from PMID: 8197227. The note with it: pH 7.4.
The compound `NC(=S)N/N=C\c1ccc2c(c1)OCO2` registered a log distribution coefficient (logD) of 1.4.

Take `NC(=S)NNCc1ccc2c(c1)OCO2`: the pH-dependent lipophilicity (logD) came to 0.14.

`O=C(NNc1nc(-c2ccccc2)cs1)c1ccc2c(c1)OCO2` displayed a logD of 2.14.

Compound `Cc1csc(NN=Cc2ccc3c(c2)OCO3)n1` gave a pH-dependent lipophilicity (logD) of 1.5.

In the case of `c1csc(NNCc2ccc3c(c2)OCO3)n1`, the logD worked out at 1.8.

Experiment in a further series: not given
Details: not given
This is another data set of the same source.
The compound `CN(C)c1ccc(-c2cn3cc(I)ccc3n2)cc1` had a lipophilicity (logP) of 4.03.

`Ic1ccc2nc(-c3ccc(-c4nccs4)cc3)cn2c1`: the logP worked out at 3.06.

Turning to `Ic1ccc2nc(-c3ccc(-c4cc[nH]n4)cc3)cn2c1`, the logP amounted to 3.2.

In turn, `Ic1ccc2nc(-c3ccc(-c4ncon4)cc3)cn2c1` yielded a log partition coefficient (logP) of 3.12.

In turn, `Ic1ccc2nc(-c3ccc(-c4cnco4)cc3)cn2c1` came in with a logP of 3.64.

The nature of the next series: method code SF-AS, from DOI: 10.1002/etc.5620180606.
Details: not given
In turn, `COc1cc(/N=N/c2c(Br)cc([N+](=O)[O-])cc2[N+](=O)[O-])c(NC(C)=O)cc1N(CCOC(C)=O)CCOC(C)=O` showed a logP of 4.44.

In the case of `Nc1c(Oc2ccccc2)c(Oc2ccccc2)c(N)c2c1C(=O)c1ccccc1C2=O`, the lipophilicity (logP) is 5.19.

In turn, `CC(=O)CCC(C#N)Nc1ccc(N=Nc2nc3ccc([N+](=O)[O-])cc3s2)cc1` (stereo not given) came in with a log partition coefficient (logP) of 4.08.

`O=[N+]([O-])c1cc(S(=O)(=O)Nc2ccccc2)ccc1Nc1ccccc1` returned a logP of 3.62.

`Cc1c(O)c(C#N)c(C)c(N=Nc2ccc(Cl)c(Cl)c2)c1O` returned a logP of 3.74.

The nature of another series: method code SF, from DOI: 10.1016/0378-5173(85)90102-4. As to conditions: pH 8.0.
Regarding `CCCN(CCC)CC(=O)OCn1ncc2c(=O)[nH]cnc21`, the logD was 1.27.

Turning to `NC(C(=O)OCn1ncc2c(=O)[nH]cnc21)c1ccccc1` (stereo not given), the pH-dependent lipophilicity (logD) was -0.15.

In the case of `CCN(CC)[C@@H](C)C(=O)OCn1ncc2c(=O)[nH]cnc21` (racemic), the pH-dependent lipophilicity (logD) was 0.72.

`CC(C)C[C@H](N)C(=O)OCn1ncc2c(=O)[nH]cnc21` came in with a logD of 0.19.

`CN(C)CC(=O)OCn1ncc2c(=O)[nH]cnc21`: the logD was -0.49.

Another series can be described thus: method code SF-AS, from DOI: 10.1016/0048-3575(87)90152-0.
Details: not given
`COC(=O)C(c1ccccc1)C(C)C` (stereo not given) yielded a logP of 3.33.

`CC(C)[C@H](Nc1ccccc1)C(=O)OCc1ccccc1`: the logP was found to be 4.41.

Consider `CC(C)CC(=O)Oc1ccccc1`, for which the logP worked out at 3.18.

Regarding `CC(C)CC(=O)OCc1ccccc1`, the logP is 3.26.

Compound `CCOC(C(=O)OCc1ccccc1)C(C)C` (stereo not given) gave a logP of 3.29.

A further series can be described thus: method code SF, from DOI: 10.1021/jm9405147, PMID: 8576915.
Details: not given
`CC1=C(N2CC2)C(=O)C(Cl)=C(N2CC2)C1=O` gave a log partition coefficient (logP) of 1.2.

`NC1=C(Cl)C(=O)c2ccccc2C1=O` gave a logP of 2.08.

Compound `CC1=C(N2CC2)C(=O)C(CCOC(N)=O)=C(N2CC2)C1=O` displayed a logP of 0.16.

`CC1=C(N2CC2)C(=O)C(Br)=C(N2CC2)C1=O` displayed a lipophilicity (logP) of 1.36.

Take `NC1=CC(=O)c2ccccc2C1=O`: the logP came out at 1.77.

Another series in a line: method code SF-AS, from DOI: 10.1021/jm00163a043, PMID: 2153206. As to conditions: pH 7.0.
For `Nc1ccn([C@H]2C=C[C@@H](CO)O2)c(=O)n1`, the log distribution coefficient (logD) is -0.7.

The compound `Cc1cn([C@H]2C[C@H](O)[C@@H](CO)O2)c(=O)[nH]c1=S` gave a logD of -0.07.

On to `O=c1[nH]c(=S)ccn1[C@H]1CC[C@@H](CO)O1`, for which the logD was -0.21.

As for `Cc1cn([C@H]2CC[C@@H](CO)O2)c(=O)[nH]c1=S`, the logD is 0.44.

Regarding `Nc1ccn(C2CC(O)C(CO)O2)c(=O)n1` (stereo not given), the logD is -1.62.

The nature of a further series: method code SF, from DOI: 10.1016/j.bcp.2004.09.021, PMID: 15627482. As to conditions: pH 7.0.
In turn, `CCCCC1(C(=O)OC(C)C)CCC=[N+]1[O-]` (stereo not given) came in with a log distribution coefficient (logD) of 1.07.

Consider `CCCCC1(C(=O)OCC)C(CC)C(C)C=[N+]1[O-]` (stereo not given), for which the pH-dependent lipophilicity (logD) is 1.01.

`CCCCOC(=O)C1(CCCC)CCC=[N+]1[O-]` (stereo not given) displayed a logD of 1.75.

On to `CCCCC1(C(=O)OCC)CCC=[N+]1[O-]` (stereo not given), for which the pH-dependent lipophilicity (logD) stood at 0.69.

The compound `CCCCC1(C(=O)OC(C)(C)C)CCC=[N+]1[O-]` (stereo not given) returned a log distribution coefficient (logD) of 1.36.

A short description of the next series: method code SF-AS, from DOI: 10.1139/cjpp-75-12-1362, PMID: 9534947.
Details: not given
For the compound `O=C(N/N=C/c1c(O)ccc2ccccc12)c1ccc(O)cc1`, the lipophilicity (logP) worked out at 3.95.

The compound `COc1ccc(C(=O)N/N=C\c2c(O)ccc3ccccc23)cc1` gave a logP of 4.06.

Regarding `O=C(N/N=C/c1c(O)ccc2ccccc12)c1ccco1`, the log partition coefficient (logP) is 3.41.

For the compound `O=C(N/N=C/c1c(O)ccc2ccccc12)c1ccc([N+](=O)[O-])cc1`, the logP was 3.58.

On to `CC(=O)N/N=C/c1c(O)ccc2ccccc12`, for which the logP is 2.91.

A further series in a line: method code SF, from DOI: 10.1034/j.1399-3011.2003.00037.x, PMID: 12492901. The note with it: pH 2.0.
With `CCCC(Nc1ccc([N+](=O)[O-])cc1[N+](=O)[O-])C(=O)O` (racemic), the logD was 2.88.

Turning to `CCCC[C@H](Nc1ccc([N+](=O)[O-])cc1[N+](=O)[O-])C(=O)O`, the logD was 3.25.

Consider `C[C@H](Nc1ccc([N+](=O)[O-])cc1[N+](=O)[O-])C(=O)O`, for which the pH-dependent lipophilicity (logD) was determined as 2.09.

Take `CC(=O)N[C@@H](Cc1ccccc1)C(=O)O`: the logD was 0.4.

Still in this series, the particulars now being: pH 11.0.
`CC(=O)NC(Cc1c[nH]c2ccccc12)C(N)=O` (stereo not given) had a log distribution coefficient (logD) of 0.16.

A short description of a further series: method code pH-metric titration, from DOI: 10.1002/(sici)1096-9063(199607)47:3<265::aid-ps416>3.0.co;2-f.
Details: not given
Compound `CN1CCC[C@H]1c1cccnc1` displayed a logP of 0.93.

The compound `CC(Oc1ccc(Oc2ccc(C(F)(F)F)cn2)cc1)C(=O)O` (stereo not given) had a logP of 3.18.

Compound `CC(C(=O)O)N(C(=O)c1ccccc1)c1ccc(F)c(Cl)c1` (racemic) yielded a logP of 3.09.

The same series, now with this note: pH 2.7.
`CC(C)C1(C)N=C(c2ncccc2C(=O)O)NC1=O` (stereo not given) displayed a log distribution coefficient (logD) of 0.22.

The series is the same for the next values; noted with them: pH 9.0.
`CC(Cc1ccc(C(C)(C)C)cc1)CN1C[C@@H](C)O[C@@H](C)C1` (stereo not given in full): the logD stood at 4.93.

The nature of the next series: method code SF-AS, from Frater-Schröder, M.; Alder, S.; Zbinden, G. (1976). Neurotoxic effects of pyridoxine and analogs in rats. Proc. Eur. Soc. Toxicol, 17, 277-284. The note with it: pH 7.4.
The compound `Cc1ncc(CO)c(COCCC(C)C)c1O` came in with a logD of 0.83.

As to `CCCCOCc1c(CO)cnc(C)c1O`, the logD was 1.34.

For `CCCCN(CCCC)Cc1c(CO)cnc(C)c1O`, the logD stood at 1.69.

In the case of `Cc1ncc(CO)c2c1OC1=CCCCC1=C2`, the log distribution coefficient (logD) amounted to 1.98.

Take `Cc1ncc(CO)c(Cc2ccc(N(C)C)cc2)c1O`: the logD is 0.81.
